Tests used:
[1] = biological target: human Cereblon WT GST-tagged protein (Homo sapiens (Human), UniProt Q96SW2); experiment: CRBN-binding affinity, HTRF (CEREBLON BINDING kit)
Summary of the method: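 GST-tagged human WT Cereblon incubated with compound, then Thalidomide-Re tracer and anti-GST Eu antibody added. Displacement read by HTRF, reported as CRBN binding inhibition rate against blank control wells without protein.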

IKZF3 protein = IKZF3 protein (Homo sapiens (Human), UniProt Q96SW2+Q9UKT9); experiment: Western-blot assay of substrate protein degradation in hPBMC, IKZF3; format: cell-based; settings: hPBMC cells, compound 500 nM, 24 hours, Western blot
Chain of IKZF3 protein (Q9UKT9 whole entry): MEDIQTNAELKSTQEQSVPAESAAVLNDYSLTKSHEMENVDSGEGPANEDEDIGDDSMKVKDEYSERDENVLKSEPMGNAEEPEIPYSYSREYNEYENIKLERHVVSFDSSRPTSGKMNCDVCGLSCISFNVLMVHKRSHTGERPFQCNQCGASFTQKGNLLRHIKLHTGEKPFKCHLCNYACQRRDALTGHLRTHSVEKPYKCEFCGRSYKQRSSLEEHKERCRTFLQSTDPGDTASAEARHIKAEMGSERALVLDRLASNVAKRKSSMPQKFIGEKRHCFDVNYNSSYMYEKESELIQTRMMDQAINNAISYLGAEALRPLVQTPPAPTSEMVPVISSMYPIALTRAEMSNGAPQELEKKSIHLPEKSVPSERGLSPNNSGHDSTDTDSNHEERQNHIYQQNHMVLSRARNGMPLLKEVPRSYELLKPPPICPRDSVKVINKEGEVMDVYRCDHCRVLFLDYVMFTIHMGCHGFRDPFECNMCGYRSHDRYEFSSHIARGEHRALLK
Chain of IKZF3 protein (Q96SW2 whole entry): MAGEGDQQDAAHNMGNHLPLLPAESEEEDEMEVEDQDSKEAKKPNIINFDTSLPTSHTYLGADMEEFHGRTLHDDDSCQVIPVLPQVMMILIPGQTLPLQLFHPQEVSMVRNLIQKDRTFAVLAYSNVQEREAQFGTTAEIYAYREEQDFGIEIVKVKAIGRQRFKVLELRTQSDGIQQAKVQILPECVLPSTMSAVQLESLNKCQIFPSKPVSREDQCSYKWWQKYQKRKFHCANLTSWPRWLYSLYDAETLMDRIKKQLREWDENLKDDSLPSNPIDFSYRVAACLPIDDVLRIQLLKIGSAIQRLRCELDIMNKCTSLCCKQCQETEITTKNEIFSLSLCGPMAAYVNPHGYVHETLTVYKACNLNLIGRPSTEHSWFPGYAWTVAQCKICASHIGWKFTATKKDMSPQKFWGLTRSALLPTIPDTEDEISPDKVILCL
Chain of IKZF3 protein (Q16531 whole entry partner): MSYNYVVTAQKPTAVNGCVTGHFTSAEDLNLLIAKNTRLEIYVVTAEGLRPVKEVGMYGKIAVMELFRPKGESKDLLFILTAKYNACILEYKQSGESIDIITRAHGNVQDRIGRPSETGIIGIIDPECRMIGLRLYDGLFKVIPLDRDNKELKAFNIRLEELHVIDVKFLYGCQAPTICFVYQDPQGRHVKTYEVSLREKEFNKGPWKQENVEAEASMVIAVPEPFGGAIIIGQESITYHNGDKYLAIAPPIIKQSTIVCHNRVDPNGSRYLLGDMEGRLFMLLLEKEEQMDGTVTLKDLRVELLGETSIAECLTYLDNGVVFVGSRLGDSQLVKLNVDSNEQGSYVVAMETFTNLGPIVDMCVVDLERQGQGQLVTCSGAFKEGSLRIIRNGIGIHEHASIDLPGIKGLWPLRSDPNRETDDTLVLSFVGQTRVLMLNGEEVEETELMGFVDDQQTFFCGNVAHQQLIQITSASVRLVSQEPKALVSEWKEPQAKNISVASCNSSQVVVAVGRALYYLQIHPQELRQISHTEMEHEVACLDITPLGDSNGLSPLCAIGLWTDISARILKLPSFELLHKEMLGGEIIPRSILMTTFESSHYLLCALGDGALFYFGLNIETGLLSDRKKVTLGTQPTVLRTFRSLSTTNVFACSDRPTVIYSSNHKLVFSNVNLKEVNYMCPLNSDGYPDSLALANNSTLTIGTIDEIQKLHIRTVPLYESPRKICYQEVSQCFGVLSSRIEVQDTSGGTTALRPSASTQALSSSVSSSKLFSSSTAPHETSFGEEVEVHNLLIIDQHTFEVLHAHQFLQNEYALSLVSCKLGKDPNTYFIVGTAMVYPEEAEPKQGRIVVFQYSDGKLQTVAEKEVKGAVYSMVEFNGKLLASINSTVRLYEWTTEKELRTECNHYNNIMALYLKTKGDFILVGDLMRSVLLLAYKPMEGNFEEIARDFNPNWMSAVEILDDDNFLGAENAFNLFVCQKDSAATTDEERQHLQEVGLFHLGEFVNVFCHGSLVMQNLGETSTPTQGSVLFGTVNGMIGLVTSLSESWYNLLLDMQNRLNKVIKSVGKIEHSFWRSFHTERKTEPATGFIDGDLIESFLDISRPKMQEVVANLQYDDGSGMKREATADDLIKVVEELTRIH
Procedure: (§1) After treating the cells with the compounds for 24 hours, the cells were collected and lysed using RIPA protein lysate containing phosphatase inhibitors. The lysate was then placed on ice for 30-60 minutes and centrifuged. The supernatant was aspirated as the extracted total cell protein. The protein concentration of the supernatant was determined using the conventional BCA (Bicinchoninic Acid) assay. The supernatant was then mixed with 4×SDS sample loading buffer, denatured at 95° C. for 5 minutes, and then subjected to SDS-PAGE electrophoresis on a polyacrylamide gel, followed by transfer to a nitrocellulose membrane (NC membrane). The membrane was blocked with blocking buffer at room temperature for 1-2 hours, and then antibody incubation and detection were carried out according to the antibody instructions provided by Cell Signaling Technology.
(§2) Half-Maximal Degradation Concentration value (the drug concentration required for degrading proteins by 50%, abbreviated as DC50) reads method: comparing the gray values of the Western blotting bands for the drug treatment with the gray values of the Western blotting band for the DMSO control, and reading the drug concentration range corresponding to the gray value of the Western blotting bands for the drug treatment which is equal to half of the gray value of the Western blotting band for the DMSO control.
(§3) DC50 value could also be calculated as follows: using software ImageJ to quantify the gray values of the Western blotting bands for the drug treatment, fitting the relationship curve between drug concentrations and gray values, and from the fitted curve, calculating the drug concentration corresponding to half of the gray value of the Western blotting band for the DMSO control.

GSPT1 protein = GSPT1 protein (Homo sapiens (Human), UniProt P15170+Q96SW2); experiment: Western-blot assay of substrate protein degradation in hPBMC, GSPT1; format: cell-based; settings: hPBMC cells, compound 500 nM, 24 hours, Western blot
Chain of GSPT1 protein (P15170 whole entry): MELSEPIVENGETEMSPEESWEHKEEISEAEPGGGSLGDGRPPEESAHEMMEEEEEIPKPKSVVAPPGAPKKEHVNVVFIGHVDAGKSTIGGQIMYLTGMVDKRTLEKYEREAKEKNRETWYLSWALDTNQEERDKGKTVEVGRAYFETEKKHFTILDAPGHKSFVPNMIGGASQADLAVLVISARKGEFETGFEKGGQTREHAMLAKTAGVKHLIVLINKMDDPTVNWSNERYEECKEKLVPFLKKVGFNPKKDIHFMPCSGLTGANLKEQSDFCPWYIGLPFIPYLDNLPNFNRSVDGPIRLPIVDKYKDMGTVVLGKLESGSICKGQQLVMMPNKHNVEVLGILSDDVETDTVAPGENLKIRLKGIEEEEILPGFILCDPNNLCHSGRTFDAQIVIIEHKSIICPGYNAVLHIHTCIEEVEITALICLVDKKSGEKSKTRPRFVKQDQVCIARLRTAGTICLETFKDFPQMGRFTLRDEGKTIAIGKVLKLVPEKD
Chain of GSPT1 protein (Q96SW2 whole entry): as the sequence (Q96SW2 whole entry) above
Chain of GSPT1 protein (Q16531 whole entry partner): as the sequence (Q16531 whole entry partner) above
Procedure: as §1, §2, §3

IKZF1 protein = IKZF1 protein (Homo sapiens (Human), UniProt Q13422+Q96SW2); experiment: Western-blot assay of substrate protein degradation in hPBMC, IKZF1; format: cell-based; settings: hPBMC cells, compound 500 nM, 24 hours, Western blot
Chain of IKZF1 protein (Q13422 whole entry): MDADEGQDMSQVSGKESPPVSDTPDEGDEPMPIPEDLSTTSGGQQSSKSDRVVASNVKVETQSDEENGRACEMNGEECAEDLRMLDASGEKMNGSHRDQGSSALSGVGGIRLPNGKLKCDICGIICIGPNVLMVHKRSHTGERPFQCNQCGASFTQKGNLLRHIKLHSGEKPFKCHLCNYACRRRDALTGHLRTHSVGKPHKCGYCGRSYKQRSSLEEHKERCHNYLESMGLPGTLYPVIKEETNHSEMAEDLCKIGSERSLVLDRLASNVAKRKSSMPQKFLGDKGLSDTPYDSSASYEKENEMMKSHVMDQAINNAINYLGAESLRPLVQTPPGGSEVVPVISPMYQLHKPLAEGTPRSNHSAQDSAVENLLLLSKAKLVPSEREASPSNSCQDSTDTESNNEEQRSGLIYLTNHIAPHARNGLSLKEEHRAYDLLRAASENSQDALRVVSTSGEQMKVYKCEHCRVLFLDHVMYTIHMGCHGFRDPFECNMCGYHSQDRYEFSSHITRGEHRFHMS
Chain of IKZF1 protein (Q96SW2 whole entry): as the sequence (Q96SW2 whole entry) above
Chain of IKZF1 protein (Q16531 whole entry partner): as the sequence (Q16531 whole entry partner) above
Procedure: as §1, §2, §3

Chain of human Cereblon WT GST-tagged protein (Q96SW2 whole entry): as the sequence (Q96SW2 whole entry) above

SMILES | IC50 [1] | residual substrate protein level, IKZF3 (IKZF3 protein) | residual substrate protein level, GSPT1 (GSPT1 protein) | residual substrate protein level, IKZF1 (IKZF1 protein)
CC1(C)CCC(C(=O)N2CCCN(Cc3ccc4c(c3)CN(C3CCC(=O)NC3=O)C4=O)CC2)=C(c2ccc(Cl)cc2)C1 (stereo not shown) [GT-05680, 3-(5-((4-(4′-chloro-5,5-dimethyl-3,4,5,6-tetrahydro-[1,1′-biphenyl]-2-carbonyl)-1,4-diazepan-1-yl)methyl)-1-oxoisoindolin-2-yl)piperidine-2,6-dione] | 980 nM | A (A represents a residual substrate protein level of <50%) | B (B represents a residual substrate protein level of >50%) | B (B represents a residual substrate protein level of >50%)
O=C1CCC(N2Cc3cc(C=C4CN(Cc5ccccc5-c5ccc(Cl)cc5)C4)ccc3C2=O)C(=O)N1 (stereo not shown) [GT-03881, 3-(5-((1-((4′-chloro-[1,1′-biphenyl]-2-yl)methyl)azetidin-3-ylidene)methyl)-1-oxoisoindolin-2-yl)piperidine-2,6-dione] | 480 nM | B (B represents a residual substrate protein level of >50%) | A (A represents a residual substrate protein level of <50%) | B (B represents a residual substrate protein level of >50%)
O=C1CCC(N2C(=O)c3ccc(C(=O)N4CCN(Cc5ccc(-c6ccc(Cl)cc6)cc5)CC4)cc3C2=O)C(=O)N1 (stereo not shown) [GT-05600, 5-(4-((4′-chloro-[1,1′-biphenyl]-4-yl)methyl)piperazine-1-carbonyl)-2-(2,6-dioxopiperidin-3-yl)isoindoline-1,3-dione] | – | B (B represents a residual substrate protein level of >50%) | A (A represents a residual substrate protein level of <50%) | B (B represents a residual substrate protein level of >50%)
CC1(C)CCC(CN2CC3CC(C2)N3Cc2ccc3c(c2)C(=O)N(C2CCC(=O)NC2=O)C3=O)=C(c2ccc(Cl)cc2)C1 (stereo not shown) [GT-05368, 5-((3-((4′-chloro-5,5-dimethyl-3,4,5,6-tetrahydro-[1,1′-biphenyl]-2-yl)methyl)-3,6-diazabicyclo[3.1.1]heptan-6-yl)methyl)-2-(2,6-dioxopiperidin-3-yl)isoindoline-1,3-dione] | 1800 nM | A (A represents a residual substrate protein level of <50%) | A (A represents a residual substrate protein level of <50%) | B (B represents a residual substrate protein level of >50%)
CC1(C)CCC(CN2CC3CCC2CN3Cc2ccc3c(c2)CN(C2CCC(=O)NC2=O)C3=O)=C(c2ccc(F)cc2)C1 (stereo not shown) [GT-05512, 3-(5-((5-((4′-fluoro-5,5-dimethyl-3,4,5,6-tetrahydro-[1,1′-biphenyl]-2-yl)methyl)-2,5-diazabicyclo[2.2.2]octan-2-yl)methyl)-1-oxoisoindolin-2-yl)piperidine-2,6-dione] | 570 nM | B (B represents a residual substrate protein level of >50%) | A (A represents a residual substrate protein level of <50%) | B (B represents a residual substrate protein level of >50%)
CC1(C)CCC(CN2CC3CCC2CN3C(=O)c2ccc3c(c2)C(=O)N(C2CCC(=O)NC2=O)C3=O)=C(c2ccc(Cl)cc2)C1 (stereo not shown) [GT-05414, 5-(5-((4′-chloro-5,5-dimethyl-3,4,5,6-tetrahydro-[1,1′-biphenyl]-2-yl)methyl)-2,5-diazabicyclo[2.2.2]octane-2-carbonyl)-2-(2,6-dioxopiperidin-3-yl)isoindoline-1,3-dione] | – | A (A represents a residual substrate protein level of <50%) | B (B represents a residual substrate protein level of >50%) | B (B represents a residual substrate protein level of >50%)
O=C1CCC(N2C(=O)c3ccc(CN4CCN(CC5=C(c6ccc(F)cc6)CCCC5)CC4)cc3C2=O)C(=O)N1 (stereo not shown) [GT-05464, 2-(2,6-dioxopiperidin-3-yl)-5-((4-((4′-fluoro-3,4,5,6-tetrahydro-[1,1′-biphenyl]-2-yl)methyl)piperazin-1-yl)methyl)isoindoline-1,3-dione] | – | A (A represents a residual substrate protein level of <50%) | B (B represents a residual substrate protein level of >50%) | B (B represents a residual substrate protein level of >50%)
O=C1CCC(N2C(=O)c3ccc(CN4CCN(Cc5cccc(-c6ccc(Cl)cc6)c5)CC4)cc3C2=O)C(=O)N1 (stereo not shown) [GT-05630, 5-((4-((4′-chloro-[1,1′-biphenyl]-3-yl)methyl)piperazin-1-yl)methyl)-2-(2,6-dioxopiperidin-3-yl)isoindoline-1,3-dione] | – | A (A represents a residual substrate protein level of <50%) | B (B represents a residual substrate protein level of >50%) | B (B represents a residual substrate protein level of >50%)
CC1(C)CCC(CN2CC3CCC(C2)N3Cc2ccc3c(c2)C(=O)N(C2CCC(=O)NC2=O)C3=O)=C(c2ccc(Cl)cc2)C1 (stereo not shown) [GT-04719, 5-((3-((4′-chloro-5,5-dimethyl-3,4,5,6-tetrahydro-[1,1′-biphenyl]-2-yl)methyl)-3,8-diazabicyclo[3.2.1]octan-8-yl)methyl)-2-(2,6-dioxopiperidin-3-yl)isoindoline-1,3-dione] | – | B (B represents a residual substrate protein level of >50%) | A (A represents a residual substrate protein level of <50%) | B (B represents a residual substrate protein level of >50%)
CC1(C)CCC(CN2CC3CCC(C2)N3c2ccc3c(c2)CN(C2CCC(=O)NC2=O)C3=O)=C(c2ccc(Cl)cc2)C1 (stereo not shown) [GT-05430, 3-(5-(3-((4′-chloro-5,5-dimethyl-3,4,5,6-tetrahydro-[1,1′-biphenyl]-2-yl)methyl)-3,8-diazabicyclo[3.2.1]octan-8-yl)-1-oxoisoindolin-2-yl)piperidine-2,6-dione] | – | B (B represents a residual substrate protein level of >50%) | A (A represents a residual substrate protein level of <50%) | B (B represents a residual substrate protein level of >50%)
CC1(C)CCC(CN2CC3CC2CN3Cc2ccc3c(c2)C(=O)N(C2CCC(=O)NC2=O)C3=O)=C(c2ccc(Cl)cc2)C1 (stereo not shown) [GT-05533, 5-((5-((4′-chloro-5,5-dimethyl-3,4,5,6-tetrahydro-[1,1′-biphenyl]-2-yl)methyl)-2,5-diazabicyclo[2.2.1]heptan-2-yl)methyl)-2-(2,6-dioxopiperidin-3-yl)isoindoline-1,3-dione] | – | A (A represents a residual substrate protein level of <50%) | A (A represents a residual substrate protein level of <50%) | A (A represents a residual substrate protein level of <50%)
CC1(C)CCC(CN2CCN(Cc3ccc4c(c3)C(=O)N(C3CCC(=O)NC3=O)C4=O)C(C(F)(F)F)C2)=C(c2ccc(Cl)cc2)C1 (stereo not shown) [GT-06103, 5-((4-((4′-chloro-5,5-dimethyl-3,4,5,6-tetrahydro-[1,1′-biphenyl]-2-yl)methyl)-2-(trifluoromethyl)piperazin-1-yl)methyl)-2-(2,6-dioxopiperidin-3-yl)isoindoline-1,3-dione] | – | B (B represents a residual substrate protein level of >50%) | A (A represents a residual substrate protein level of <50%) | B (B represents a residual substrate protein level of >50%)
CC1(C)CCC(CN2CC3(C2)CN(Cc2ccc4c(c2)C(=O)N(C2CCC(=O)NC2=O)C4=O)C3)=C(c2ccc(Cl)cc2)C1 (stereo not shown) [GT-05675, 5-((6-((4′-chloro-5,5-dimethyl-3,4,5,6-tetrahydro-[1,1′-biphenyl]-2-yl)methyl)-2,6-diazaspiro[3.3]heptan-2-yl)methyl)-2-(2,6-dioxopiperidin-3-yl)isoindoline-1,3-dione] | – | B (B represents a residual substrate protein level of >50%) | B (B represents a residual substrate protein level of >50%) | B (B represents a residual substrate protein level of >50%)
